Entries after “also recorded” stand apart in the source; their conditions may differ. Each block holds one molecule with its values, some of them ahead of it.
Key:
[1] = test system: HepG2 liver cancer cells; test: MTT assay for cytotoxic screening, HepG2; type: cell-based, human; details: mean ± SE, n = 3
Experimental: The in vitro anti-cancer activity was assessed using the MTT assay. […] Staurosporine and 5-FU were used as reference drugs. HepG2 cells (1 × 10^4 cells/well, 96-well plate) were maintained in DMEM media supplemented with 2mML-glutamine (Lonza, Verviers, Belgium) and 10% FBS (Sigma, St. Louis, MO, USA), 1% Penicillin/Streptomycin (Lonza, Verviers, Belgium) according to the routine culture work. Cultures were incubated for 48 h with serial dilutions (0.01, 0.1, 1, 10, 100 µM) of the tested compounds. Finally, cell viability was determined by measuring the absorbance λ570 nm according to the following formula: % of cell viability = (A sapmple/A control) ×100, then IC50 calculation was calculated using GraphPad Prism 7 software.

[2] = test system: THLE-2 normal liver cells; test: MTT assay, normal liver cells; type: cell-based; details: n = 3
[3] = Hematological parameters (CBC) in mice; type: in vivo; details: SEC-bearing mice, 6 mg/Kg BW
Experimental: (§1) We randomly divided 50 mice into groups 5 groups (10 mice in each group): normal control (I) (mice injected intraperitoneally with the same volume of solvent for 14 consecutive days); group II, a group of normal mice treated with compound 4 (mice injected intraperitoneally with newly produced compound 4 at a dose of 6 mg/kg per day for 14 days); group III, solid tumor group (mice were implanted with solid tumor); group IV, group were treated with 5-FU (after 10 days of tumor implantation, mice were treated with 6 mg/kg only once); and group V, solid tumor group were treated with compound 4 (after 10 days of tumor implantation, mice were treated with 6 mg/kg only once). after one day of the previous treatment, 10 mice from each group were sacrificed and tumor weight, tumor volume (length and width of solid femoral tumor), blood and liver samples were obtained from each group. A portion of each blood sample taken was used for complete blood count (CBC) and the rest was centrifuged to obtain the serum. Serum was used for biochemical parameter estimation. The livers were rapidly dissected, washed with isotonic saline, and dried. The experiment design is summarized in Supplementary Figure S3.
(§2) Complete blood counts (CBCs) were counted using an AbbottCELLDYN®1800 Automated Hematology Analyzer (Abbott Park, IL, USA) equipped with an off-the-shelf kit (Abbott Laboratories, Abbott Park, IL, USA). For microscopic histopathological examination, tumor and kidney slices were maintained in 10% formalin, dehydrated with graduated alcohol, embedded in paraffin sections, H&E stained, and hematoxylin stained.

[4] = Histopathological examination of liver and kidney (H&E); type: in vivo, mice; details: SEC-bearing mice treated
Experimental: as §1, §2
Specimens from mice liver cells were fixed in 10% formalin saline. Then, the samples were dehydrated with ascending series of ethanol and embedded in paraffin. A […] thick section was stained with hematoxylin and eosin and examined under a light microscope.

[5] = Serum biochemical parameters in mice; type: in vivo; details: SEC-bearing mice, 6 mg/Kg BW
Experimental: as §1
Evaluation of the activities of aspartate aminotransferase (AST) and alanine aminotransferase (ALT) using a commercial kit (ELITech Clinical Systems, France). The serum albumin level was measured using a kit obtained from STANBIO Company (USA). A commercial kit from the BioDiagnostic Company (Cairo, Egypt) was used to evaluate creatinine and urea levels.

[6] = test system: Solid Ehrlich carcinoma (SEC); test: In vivo anti-tumor assay: tumor volume and tumor inhibition ratio; details: SEC-bearing mice, 6 mg/kg; SEC control 5802 mm^3
Experimental: We used adult Swiss albino female mice with average body weight 18–23 g obtained from Theodor Bilharzia Research Institute in Giza, Egypt. Mice were kept under constant conditions of a 12 h light–dark cycle at temperatures below controlled moisture conditions (22 ± 2 °C) with standard laboratory mouse nutrition and water entries. Approval for the experimental protocol was provided from the ethical committee of Suez Canal University for this experimental protocol (approval number REC-06-2020, Faculty of Science, Suez Canal University). Mice were adapted for approximately 10 days before use in the experiment.
Solid Ehrlich carcinoma (SEC) was obtained from the National Cancer Institute (University of Cairo, Egypt). The tumor cell line proliferated in mice after serial implantation of the peritoneal cavity (I.P.) in 0.2 mL of physiological saline containing 1 × 10^6 viable cells for 24 h. […]
We measured the length and width of the tumor using a digital Vernier clipper (Tricle Brand, Shanghai, China), then we calculate the tumor volume using the formula: V = (L × W × W)/2, where V is tumor volume, W is tumor width, and L is tumor length, and calculated the tumor inhibition ratio% using the formula: TIR %= (C − T)/C × 100, where T represents mean tumor volume of treated group and C represents mean tumor volume of the control group.

[7] = Homo sapiens, THLE-2, mean ± SE

Compound: COc1ccc(/C=C2\C(=O)NC(=S)N2c2ccccc2)cc1 [Compound 1, (E)-5-(4-Methoxybenzylidene)-1-phenyl-2-thioxoimidazolidin-4-one]
IC50 ([1]; Homo sapiens, HepG2, 48 h): 27.8 ± 0.94 µM

Compound: C=CCN1C(=O)/C(=C\c2ccc(C)cc2)NC1=S [Compound 6, (E)-3-Allyl-5-(4-methylbenzylidene)-2-thioxoimidazolidin-4-one]
IC50 ([1]; Homo sapiens, HepG2, 48 h): 0.61 ± 0.08 µM
IC50 [2, 7]: 35.1 ± 1.33 µM

Compound: CN[C@@H]1C[C@H]2O[C@@](C)([C@@H]1OC)n1c3ccccc3c3c4c(c5c6ccccc6n2c5c31)C(=O)NC4 [Staurosporine, reference compound]
IC50 ([1]; Homo sapiens, HepG2, 48 h): 5.07 ± 0.22 µM

Compound: O=C1NC(=S)N(c2ccccc2)/C1=C/c1cc2ccccc2[nH]1 [Compound 2, (E)-5-((1H-Indol-2-yl)methylene)-1-phenyl-2-thioxoimidazolidin-4-one]
IC50 ([1]; Homo sapiens, HepG2, 48 h): 0.18 ± 0.03 µM
IC50 [2, 7]: 16.9 ± 1.11 µM

RBC’s count ([3]; SEC control 7.52 ± 0.5): 7.5 ± 0.8 ×10^6/µL
Hemoglobin ([3]; SEC control 11.8 ± 0.8, mean ± SE n = 9): 10.6 ± 1.1 g/dL
WBC’s count ([3]; SEC control 16.5 ± 3.4): 13.1 ± 4.1 ×10^3/µL
Creatinine [5]: 0.8 ± 0.1 mg/dL
Albumin ([5]; SEC control 4.01 ± 0.4): 4.1 ± 0.3 g/dL
Total Protein ([5]; SEC control 6.6 ± 0.4): 7.2 ± 0.4 g/dL
Urea ([5]; SEC control 25.2 ± 2.3): 26.1 ± 2.7 mg/dL
Compound: O=c1[nH]cc(F)c(=O)[nH]1 [Compound 5-FU, reference compound]
IC50 ([1]; 48 h): 5.18 ± 0.53 µM
kidney histopathology [4]: moderate improvement; also recorded: few tubules show evidence of renal acute tubular injury ATI
liver histopathology [4]: Hydropic degeneration of hepatocytes, nuclear pyknosis, and karyolysis still occurred
IC50 ([2]; mean ± SE): 43 ± 1.29 µM
AST ([5]; SEC control 48.9 ± 5.5): 38 ± 4.6 U/L
ALT ([5]; SEC control 50 ± 2.7): 39.1 ± 3.6 U/L
tumor volume on the final day [6]: 4177 mm^3

Compound: CC(C)C1(CN2CCCCC2)NC(=S)N(CN2CCCCC2)C1=O (stereo not drawn) [Compound 11, 5-Isopropyl-3,5-bis(piperidin-1-ylmethyl)-2-thioxoimidazolidin-4-one]
IC50 ([1]; Homo sapiens, HepG2, 48 h): 1.14 ± 0.05 µM

Compound: O=C1/C(=C\c2cccs2)NC(=S)N1c1ccccc1 [Compound 7, (E)-3-Phenyl-5-(thiophen-2-ylmethylene)-2-thioxoimidazolidin-4-one]
IC50 ([1]; Homo sapiens, HepG2, 48 h): 0.41 ± 0.009 µM
IC50 [2, 7]: 15.4 ± 0.74 µM

Compound: CC(C)CC1(CN2CCOCC2)NC(=S)N(CN2CCOCC2)C1=O (stereo not drawn) [Compound 12, 5-Isobutyl-3,5-bis(morpholinomethyl)-2-thioxoimidazolidin-4-one]
IC50 ([1]; Homo sapiens, HepG2, 48 h): 1.13 ± 0.066 µM

Compound: CN1C(=S)NC(=O)/C1=C\c1ccc(N(C)C)cc1 [Compound 3, (E)-5-(4-(Dimethylamino)benzylidene)-1-methyl-2-thioxoimidazolidin-4-one]
IC50 ([1]; Homo sapiens, HepG2, 48 h): 8.93 ± 0.75 µM

Compound: CN1C(=S)N(CCN2CCOCC2)C(=O)/C1=C\c1ccc2c(c1)OCO2 [Compound 5, (E)-5-(3,4-Methylenedioxybenzylidene)-3-[2-(4-morpholino)ethyl]-1-methyl-2-thioxo-imidazolidin-4-one]
IC50 ([1]; Homo sapiens, HepG2, 48 h): 1.94 ± 0.09 µM

Compound: CC(C)C1NC(=S)N(CN2CCOCC2)C1=O (stereo not drawn) [Compound 10, 5-Isopropyl-3-(morpholinomethyl)-2-thioxoimidazolidin-4-one]
IC50 ([1]; Homo sapiens, HepG2, 48 h): 64.8 ± 1.63 µM

Source: paper PMC8746798, “Evaluation of 2-Thioxoimadazolidin-4-one Derivatives as Potent Anti-Cancer Agents through Apoptosis Induction and Antioxidant Activation: In Vitro and In Vivo Approaches” (Molecules, 2021)
